Data as given in patent publication US20260125400A1, “TYK2 DEGRADERS AND USES THEREOF” (Kymera Therapeutics, Inc., priority 2023, published 2026).

Target: T1, TYK2 (Homo sapiens, UniProt P29597)
T1 construct: Degradation of TYK2 in cells was quantitatively measured using Meso Scale Discovery (MSD) technology; endogenous in cells; host or cells: OCI-LY10
Assay: TYK2 MSD degradation in OCI-LY10 cells
Assay type: cell-based
Conditions: TYK2 degradation in OCI-LY10 cells, 4 to 24 hours incubation
In short: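 OCI-LY10 cells were treated with 9-dose 1:3 series (top 1 to 10 μM final) for 4 to 24 hours at 37° C. Lysate TYK2 quantified by MSD sandwich immunoassay; DC50 and Dmax from four-parameter inhibitor vs. response fit.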

T1 sequence (P29597 whole entry): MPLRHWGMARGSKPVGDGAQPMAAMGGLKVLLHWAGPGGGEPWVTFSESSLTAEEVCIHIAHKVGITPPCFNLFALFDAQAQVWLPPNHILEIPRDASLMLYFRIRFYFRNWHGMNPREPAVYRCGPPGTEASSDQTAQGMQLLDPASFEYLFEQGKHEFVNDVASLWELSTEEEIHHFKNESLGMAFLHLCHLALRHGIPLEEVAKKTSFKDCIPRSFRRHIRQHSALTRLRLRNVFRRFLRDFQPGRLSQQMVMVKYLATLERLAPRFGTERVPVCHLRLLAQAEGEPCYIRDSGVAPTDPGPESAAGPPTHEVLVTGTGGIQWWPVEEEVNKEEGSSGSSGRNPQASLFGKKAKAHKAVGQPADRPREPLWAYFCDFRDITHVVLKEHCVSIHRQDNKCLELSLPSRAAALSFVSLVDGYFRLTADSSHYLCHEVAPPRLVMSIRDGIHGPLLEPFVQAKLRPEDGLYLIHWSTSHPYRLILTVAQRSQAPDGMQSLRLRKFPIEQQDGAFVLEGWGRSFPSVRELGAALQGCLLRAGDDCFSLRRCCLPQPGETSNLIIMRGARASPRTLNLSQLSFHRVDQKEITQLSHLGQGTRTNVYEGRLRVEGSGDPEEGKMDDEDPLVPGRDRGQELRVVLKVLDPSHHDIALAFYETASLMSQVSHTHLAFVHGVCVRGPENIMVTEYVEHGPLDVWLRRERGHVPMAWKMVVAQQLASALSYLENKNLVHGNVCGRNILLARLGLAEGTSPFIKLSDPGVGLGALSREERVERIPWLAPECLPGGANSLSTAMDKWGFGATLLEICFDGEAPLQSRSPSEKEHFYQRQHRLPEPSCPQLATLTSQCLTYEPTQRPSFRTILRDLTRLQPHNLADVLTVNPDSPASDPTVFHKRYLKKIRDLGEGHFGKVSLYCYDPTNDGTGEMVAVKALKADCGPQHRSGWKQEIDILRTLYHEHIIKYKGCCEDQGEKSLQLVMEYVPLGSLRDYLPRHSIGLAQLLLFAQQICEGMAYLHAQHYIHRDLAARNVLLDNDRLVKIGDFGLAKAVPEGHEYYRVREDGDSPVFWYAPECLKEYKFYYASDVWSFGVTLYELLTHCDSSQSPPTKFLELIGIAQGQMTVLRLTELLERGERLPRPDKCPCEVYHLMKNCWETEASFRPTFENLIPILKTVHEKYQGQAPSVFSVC

**Q.** For `CNc1cc(N2CCc3c(CN4CCC(N5CCC(C6CCN(C(=O)c7cc(C)c(Cl)c(N8CCC(=O)NC8=O)c7)CC6)CC5)C(F)(F)C4)cccc32)nn2c(C(=O)N[C@@H]3CC[C@H]3OC)cnc12` (stereo partly shown) [I-1066], which “TYK2 MSD OCI-LY10 Dmax %” value is on record?
**A.** Its value is “A (A (>90%))”.

**Q.** With `CNc1cc(N2CCc3c(-c4ccc(N5CCC6(CCN(Cc7ccc(N8CCC(=O)NC8=O)c(Cl)c7)CC6)CC5)cn4)cccc32)nn2c(C(=O)N[C@@H]3C[C@@H]3F)cnc12` [I-870] as the molecule, how does the “TYK2 MSD OCI-LY10 Dmax %” value read?
**A.** Its value is “C (C (75 to 50%))”.

**Q.** Which “TYK2 MSD OCI-LY10 Dmax %” value does the source give for `CNc1cc(N2CCc3c(CN4CCC5(CC4)CCN(C4CCN(C(=O)c6ccc(Cl)c(N7CCC(=O)NC7=O)c6)CC4)CC5(F)F)cccc32)nn2c(C(=O)N[C@@H]3C[C@@H]3F)cnc12` [I-833] here?
**A.** The value was “B (B (90 to >75%))”.

**Q.** `CNc1cc(N2CCc3c(-c4ncc(CN5CC6(CCN(C(=O)c7cc(N8CCC(=O)NC8=O)c(Cl)c(C)n7)CC6(F)F)C5)cc4F)cc(F)cc32)nn2c(C(=O)N[C@@H]3CC[C@H]3OC)cnc12` [I-1151] was tested. Which “TYK2 MSD OCI-LY10 Dmax %” value did it give?
**A.** Its value is “A (A (>90%))”.

**Q.** With `CNc1cc(N2CCc3c(-c4ccc(CN5CCC6(CCC(Nc7ccc(Cl)c(C8CCC(=O)NC8=O)c7)CC6)CC5)cn4)cccc32)nn2c(C(=O)N[C@@H]3C[C@@H]3F)cnc12` (stereo partly shown) [I-251] as the molecule, how does the “TYK2 MSD OCI-LY10 Dmax %” value read?
**A.** The value was “C (C (75 to 50%))”.

**Q.** For `CNc1cc(N2CCc3c(-c4ccc(CN5CC6(CCN(C(=O)c7cc(C)c(Cl)c(N8CCC(=O)NC8=O)c7)CC6(F)F)C5)cn4)cccc32)nn2c(C(=O)NCc3ncco3)cnc12` [I-1077], which “TYK2 MSD OCI-LY10 Dmax %” value is on record?
**A.** Its value is “B (B (90 to >75%))”.

**Q.** With `CNc1cc(N2CCc3c(-c4ccc(CN5CC6(CCN(C(=O)c7cnc(OC)c(N8CCC(=O)NC8=O)c7)CC6)C5)cn4)cccc32)nn2c(C(=O)N[C@@H]3C[C@@H]3F)cnc12` [I-352] as the molecule, how does the “TYK2 MSD OCI-LY10 Dmax %” value read?
**A.** The value was “B (B (90 to >75%))”.

**Q.** For `CNc1cc(N2CCc3c(-c4ccc(N5CC6(CCN(Cc7ccc(N8CCC(=O)NC8=O)c(Cl)c7)CC6)C5)cn4)cccc32)nn2c(C(=O)N[C@@H]3C[C@@H]3F)cnc12` [I-881], which “TYK2 MSD OCI-LY10 Dmax %” value is on record?
**A.** Its value is “B (B (90 to >75%))”.

**Q.** For `CNc1cc(N2CCc3c(CN4CCC(N5CC(N6CCN(c7ccc8c(c7)n(C)c(=O)n8C7CCC(=O)NC7=O)CC6)C5)C(F)(F)C4)cccc32)nn2c(C(=O)N[C@@H]3C[C@@H]3F)cnc12` (stereo partly shown) [I-72], which “TYK2 MSD OCI-LY10 Dmax %” value is on record?
**A.** The value was “B (B (90 to >75%))”.

**Q.** For `COC1(c2cc(C)cc(-c3cn(C4CCN(CC5CCN(C(=O)c6ccc(Cl)c(N7CCC(=O)NC7=O)c6)CC5)CC4)c4cnc(NC(C)=O)cc34)n2)CCOC1` (stereo not shown) [I-858], which “TYK2 MSD OCI-LY10 Dmax %” value is on record?
**A.** Its value is “D (D (<50%))”.

**Q.** For `CNc1cc(N2CCc3c(-c4ccc(CN5CCC6(CCN(C(=O)c7ccc(Cl)c(N8CCC(=O)NC8=O)c7)CC6)C(F)(F)C5)cn4)cccc32)nn2c(C(=O)NC3CC(C(F)(F)F)C3)cnc12` (stereo not shown) [I-1118], which “TYK2 MSD OCI-LY10 Dmax %” value is on record?
**A.** Its value is “C (C (75 to 50%))”.

**Q.** `CNc1cc(N2CCc3c(-c4ccc(CN5CC6(CCN(C(=O)c7cc(C)c(Cl)c(N8CCC(=O)NC8=O)c7)CC6(F)F)C5)cn4)cccc32)nn2c(C(=O)N[C@H]3CCC[C@@H]3OC)cnc12` [I-1117] was tested. Which “TYK2 MSD OCI-LY10 Dmax %” value did it give?
**A.** Its value is “D (D (<50%))”.

**Q.** `CNc1cc(N2CCc3c(N4CCN(CCC5CCN(c6ccc7c(c6)n(C)c(=O)n7C6CCC(=O)NC6=O)CC5)CC4)cccc32)nn2c(C(=O)NC3CC3)cnc12` (stereo not shown) [I-40] was tested. Which “TYK2 MSD OCI-LY10 Dmax %” value did it give?
**A.** Its value is “D (D (<50%))”.

**Q.** For `CNc1cc(N2CCc3c(-c4ncc(CN5CC6(CCN(C(=O)c7ccc(OC)c(N8CCC(=O)NC8=O)c7)CC6(F)F)C5)cc4F)cccc32)nn2c(C(=O)N[C@@H]3C[C@@H]3F)cnc12` [I-1019], which “TYK2 MSD OCI-LY10 Dmax %” value is on record?
**A.** Its value is “A (A (>90%))”.

Same assay, conditions: TYK2 degradation in OCI-LY10 cells, 4 to 24 hours incubation, read-out: TYK2 MSD OCI-LY10 Rel-DC50

**Q.** For `CNc1cc(N2CCc3c(CN4CCC(N5CCC(C6CCN(C(=O)c7cc(C)c(Cl)c(N8CCC(=O)NC8=O)c7)CC6)CC5)C(F)(F)C4)cccc32)nn2c(C(=O)N[C@@H]3CC[C@H]3OC)cnc12` (stereo partly shown) [I-1066], which DC50 is on record?
**A.** The DC50 was under 1 nM.

**Q.** For `CNc1cc(N2CCc3c(-c4ccc(N5CCC6(CCN(Cc7ccc(N8CCC(=O)NC8=O)c(Cl)c7)CC6)CC5)cn4)cccc32)nn2c(C(=O)N[C@@H]3C[C@@H]3F)cnc12` [I-870], which DC50 is on record?
**A.** Its DC50 is 10 to 100 nM.

**Q.** `CNc1cc(N2CCc3c(CN4CCC5(CC4)CCN(C4CCN(C(=O)c6ccc(Cl)c(N7CCC(=O)NC7=O)c6)CC4)CC5(F)F)cccc32)nn2c(C(=O)N[C@@H]3C[C@@H]3F)cnc12` [I-833] was tested. Which DC50 did it give?
**A.** Its DC50 is under 10 nM.

**Q.** Which DC50 does the source give for `CNc1cc(N2CCc3c(-c4ncc(CN5CC6(CCN(C(=O)c7cc(N8CCC(=O)NC8=O)c(Cl)c(C)n7)CC6(F)F)C5)cc4F)cc(F)cc32)nn2c(C(=O)N[C@@H]3CC[C@H]3OC)cnc12` [I-1151] here?
**A.** Its DC50 is under 1 nM.

**Q.** Which DC50 does the source give for `CNc1cc(N2CCc3c(-c4ccc(CN5CCC6(CCC(Nc7ccc(Cl)c(C8CCC(=O)NC8=O)c7)CC6)CC5)cn4)cccc32)nn2c(C(=O)N[C@@H]3C[C@@H]3F)cnc12` (stereo partly shown) [I-251] here?
**A.** The DC50 was under 10 nM.

**Q.** Which DC50 does the source give for `CNc1cc(N2CCc3c(-c4ccc(CN5CC6(CCN(C(=O)c7cc(C)c(Cl)c(N8CCC(=O)NC8=O)c7)CC6(F)F)C5)cn4)cccc32)nn2c(C(=O)NCc3ncco3)cnc12` [I-1077] here?
**A.** Its DC50 is under 1 nM.

**Q.** Which DC50 does the source give for `CNc1cc(N2CCc3c(-c4ccc(CN5CC6(CCN(C(=O)c7cnc(OC)c(N8CCC(=O)NC8=O)c7)CC6)C5)cn4)cccc32)nn2c(C(=O)N[C@@H]3C[C@@H]3F)cnc12` [I-352] here?
**A.** The DC50 was under 1 nM.

**Q.** For `CNc1cc(N2CCc3c(-c4ccc(N5CC6(CCN(Cc7ccc(N8CCC(=O)NC8=O)c(Cl)c7)CC6)C5)cn4)cccc32)nn2c(C(=O)N[C@@H]3C[C@@H]3F)cnc12` [I-881], which DC50 is on record?
**A.** Its DC50 is under 10 nM.

**Q.** How did the DC50 turn out when `CNc1cc(N2CCc3c(CN4CCC(N5CC(N6CCN(c7ccc8c(c7)n(C)c(=O)n8C7CCC(=O)NC7=O)CC6)C5)C(F)(F)C4)cccc32)nn2c(C(=O)N[C@@H]3C[C@@H]3F)cnc12` (stereo partly shown) [I-72] was run?
**A.** Its DC50 is under 1 nM.

**Q.** How did the DC50 turn out when `COC1(c2cc(C)cc(-c3cn(C4CCN(CC5CCN(C(=O)c6ccc(Cl)c(N7CCC(=O)NC7=O)c6)CC5)CC4)c4cnc(NC(C)=O)cc34)n2)CCOC1` (stereo not shown) [I-858] was run?
**A.** The DC50 was over 100 nM.

**Q.** `CNc1cc(N2CCc3c(-c4ccc(CN5CCC6(CCN(C(=O)c7ccc(Cl)c(N8CCC(=O)NC8=O)c7)CC6)C(F)(F)C5)cn4)cccc32)nn2c(C(=O)NC3CC(C(F)(F)F)C3)cnc12` (stereo not shown) [I-1118] was tested. Which DC50 did it give?
**A.** The DC50 was 10 to 100 nM.

**Q.** How did the DC50 turn out when `CNc1cc(N2CCc3c(-c4ccc(CN5CC6(CCN(C(=O)c7cc(C)c(Cl)c(N8CCC(=O)NC8=O)c7)CC6(F)F)C5)cn4)cccc32)nn2c(C(=O)N[C@H]3CCC[C@@H]3OC)cnc12` [I-1117] was run?
**A.** Its DC50 is over 100 nM.

**Q.** With `CNc1cc(N2CCc3c(N4CCN(CCC5CCN(c6ccc7c(c6)n(C)c(=O)n7C6CCC(=O)NC6=O)CC5)CC4)cccc32)nn2c(C(=O)NC3CC3)cnc12` (stereo not shown) [I-40] as the molecule, how does the DC50 read?
**A.** Its DC50 is over 100 nM.

**Q.** Which DC50 does the source give for `CNc1cc(N2CCc3c(-c4ncc(CN5CC6(CCN(C(=O)c7ccc(OC)c(N8CCC(=O)NC8=O)c7)CC6(F)F)C5)cc4F)cccc32)nn2c(C(=O)N[C@@H]3C[C@@H]3F)cnc12` [I-1019] here?
**A.** Its DC50 is under 1 nM.
